Values quoted from earlier work, collected in patent US11122832B2, “Methods and compositions to improve weight loss and cardiometabolic health beyond diet and excercise” (Nature's Sunshine Products, Inc., priority 2016, dated 2021).
Like-named read-outs stand apart in the source and are kept apart here.

What was measured:
[1] = system: plasma concentration of NOx; conditions: 6 g, over 120 minutes, healthy individuals with normal plasma ADMA
[2] = not given; remark: listed apart in the source

CCCCCCCCCCC[C@@H](C[C@@H]1OC(=O)[C@H]1CCCCCC)OC(=O)[C@H](CC(C)C)NC=O [Orlistat]
≥5% weight loss responders (Period 24 weeks): 42% | ≥10% weight loss responders (Period 24 weeks): 15% | ≥5% weight loss responders (Period 24 weeks, listed as orlistat): 42%

N=C(N)NCCC[C@H](N)C(=O)O [L-arginine]
plasma concentration of NOx after acute supplementation [1]: does not increase

[N]=O [NO, Nitric oxide]
half-life of NO once produced through NOS ([2]; in vivo): approximately 1 second

O=NO [NO2, nitrite]
filtered amount reabsorbed in the renal tubules ([2]; estimated): 96%

O=[N+]([O-])O [NO3, nitrate]
bioavailability of dietary NO3 ([2]; dietary (oral)): 100% | clearance from blood to urine ([2]; in adults): approximately 20 mL/min | time to peak plasma concentration ([2]; orally consumed): approximately 1 hour | half-life of plasma NO3 ([2]; plasma): 5 to 8 h

C[C@H]1CNCCc2ccc(Cl)cc21 [Lorcaserin]
Responders (5% weight loss) (Evaluation 12 weeks, BID 10 mg, placebo 12%): 36% | ≥10% weight loss responders (Period 56 weeks, placebo 9%): 22% | ≥5% weight loss responders (Period 56 weeks, placebo 23%): 47%
